Earlier results on one substance are cited in publication PMC2764006 (Journal of molecular biology, 2009).

The conditions of the data set: single-molecule FRET.

Consider polyproline, for which the persistence length lp is 44 Å.
